Assay results: patent publication US10336732B2, “1-heterocyclyl isochromanyl compounds and analogs for treating CNS disorders” (Sunovion Pharmaceuticals Inc., priority 2015, dated 2019)

Each compound was assayed on α2 (non-selective) (assay: In vitro radioligand binding assay, α2 (non-selective), [3H]RX 821002). Conditions: rat cerebral cortex membranes.
Set-up: concentration or dose not given beside the values
Experimental: (§1) Certain compounds were tested by in vitro binding assays using standard procedures. […] These receptors and assays are well known to those skilled in the art, as exemplified by the following: Abramovitz, M. et al. (2000), Biochem. Biophys. Acta., 1483: 285-293 (EP4, IP (PGI2)); Aharony, D. et al. (1993), Mol. Pharmacol., 44: 356-363 (NK2); Ardati, A. et al. (1997), Mol. Pharmacol., 51: 816-824 (NOP (ORL1)); Bignon, E. et al. (1999), J. Pharmacol. Exp. Ther. 289: 742-751 (CCK1 (CCKA)); Bloomquist, B. T. et al. (1998), Biochem. Biophys. Res. Commun., 243: 474-479 (GAL2); Brockhaus, M. et al. (1990), Proc. Natl. Acad. Sci. U.S.A., 87: 3127-3131 (TNF-α); Brown, G. B. (1986), J. Neurosci., 6: 2064-2070 (Na+ channel (site 2)); Buchan, K. W. et al. (1994), Brit. J. Pharmacol., 112: 1251-1257 (ETA); Cesura, A. M. et al. (1990), Mol. Pharmacol., 37: 358-366 (MAO-A); Choi, D. S. et al. (1994), FEBS Lett., 352: 393-399 (5-HT2B); Clark, A. F. et al. (1996), Invest. Ophtalmol. Vis. Sci., 37: 805-813 (GR); Couvineau, A. et al. (1985), Biochem. J., 231: 139-143 (VPAC1 (VIP1)); Dorje, F. et al. (1991), J. Pharmacol. Exp. Ther., 256: 727-733 (M1, M2, M3, M4); Ferry, G. et al. (2001), Eur. J. Pharmacol., 417: 77-89 (PPARγ); Fuchs, S. et al. (2001), Mol. Med., 7: 115-124 (ETB); Fuhlendorff, J. et al. (1990), Proc. Natl. Acad. Sci. U.S.A., 87: 182-186 (Y2); Ganapathy M E. et al. (1999), J. Pharmacol. Exp. Ther., 289: 251-260 (sigma (non-selective)); Gopalakrishnan, M. et al. (1996), J. Pharmacol. Exp. Ther., 276: 289-297 (N neuronal α4β2); Greengrass, P. and Bremner, R. (1979), Eur. J. Pharmacol., 55: 323-326 (α1 (non-selective)); Grandy, D. K. et al. (1989), Proc. Natl. Acad. Sci. U.S.A., 86: 9762-9766 (D25); Guard, S. et al. (1993), Eur. J. Pharmacol., 240:177-184 (BB (non-selective)); Heuillet, E. et al. (1993), J. Neurochem., 60: 868-876 (NK1, P2X); Hope, A. G. et al. (1996), Brit. J. Pharmacol., 118: 1237-1245 (5-HT3); Hoyer, D. et al. (1985), Eur. J. Pharmacol., 118: 1-12 (5-HT1B); Hugues, M. et al. (1982), J. Biol. Chem., 257: 2762-2769 (5-HT2A, SKCa channel); Joseph, S. S. et al. (2004), Naun.-Sch. Arch. Pharm., 369: 525-532 (β2); Le, M. T. et al. (2005), Eur. J. Pharmacol., 513: 35-45 (AT1); Le Fur, G. et al. (1983), Life Sci., 33: 449-457) (BZD (peripheral); Lee, Y. M. et al. (1993), J. Biol. Chem., 268: 8164-8169 (CCK2 (CCKB)); Leurs, R. et al. (1994), Brit. J. Pharmacol., 112: 847-854 (H2); Levin, M. C. et al. (2002), J. Biol. Chem., 277: 30429-30435 (11); Lewin, A. H. et al. (1989), Mol. Pharmacol., 35: 189-194 (Cl− channel (GABA-gated)); Lukas, R. J. (1986), J. Neurochem., 46: 1936-1941 (N muscle-type); Luthin, D. R. et al. (1995), Mol. Pharmacol., 47: 307-313; (A2A); Mackenzie, R. G. et al. (1994), Eur. J. Pharmacol., 266: 79-85 (D3); Mulheron, J. G. et al. (1994), J. Biol. Chem., 269: 12954-12962 (5-HT1A); Meng, F. et al. (1993), Proc. Natl. Acad. Sci. U.S.A., 90: 9954-9958 (κ (KOP)); Monsma, F. J. et al. (1993), Mol. Pharmacol., 43: 320-327 (5-HT6); Neote, K. et al. (1993), Cell, 72: 415-425 (CCR1); Pacholczyk, T. et al. (1991), Nature, 350: 350-354 (sst (non-selective, norepinephrine transporter)); Peralta, E. G. et al. (1987), Embo. J., 6: 3923-3929 (M3); Pristupa, Z. B. et al. (1994), Mol. Pharmacol., 45: 125-135 (dopamine transporter); Pruneau, D. et al. (1998), Brit. J. Pharmacol., 125: 365-372 (B2); Rees, S. et al. (1994), FEBS Lett., 355: 242-246 (5-HT5a); Reynolds, I. J. et al. (1986), J. Pharmacol. Exp. Ther., 237: 731-738 (Ca2+ channel (L, verapamil site)); Rinaldi-Carmona, M. et al. (1996), J. Pharmacol. Exp. Ther., 278: 871-878 (CB1); Salvatore, C. A. et al. (1993), Proc. Natl. Acad. Sci. U.S.A., 90: 10365-10369 (A3); Sarau, H. M. et al. (1997), J. Pharmacol. Exp. Ther., 281: 1303-1311 (NK3); Schioth, H. B. et al. (1997), Neuropeptides, 31: 565-571 (MC4); Sharples, C. […]

SMILES	α2 percent inhibition of specific binding
Clc1ccc2c(c1)[C@H]([C@@H]1CCCN1)OCC2 [Compound I-29, (S)-2-((R)-7-chloroisochroman-1-yl)pyrrolidine]	97%
Fc1ccc2c(c1)CCO[C@H]2[C@@H]1CCN1 [Compound I-90, (S)-2-((R)-6-fluoroisochroman-1-yl)azetidine]	71%
Fc1ccc2c(c1)[C@H]([C@@H]1CCCN1)OCC2 [Compound I-5, (2S)-2-((R)-7-fluoroisochroman-1-yl)pyrrolidine]	96%
Fc1cccc2c1[C@H]([C@@H]1CCCN1)OCC2 [Compound I-1, (S)-2-((R)-8-fluoroisochroman-1-yl)pyrrolidine]	95%
Fc1ccc2c(c1)CCO[C@H]2[C@@H]1CCCN1 [Compound I-9, (S)-2-((R)-6-fluoroisochroman-1-yl)pyrrolidine]	91%
Fc1cccc2c1[C@H]([C@@H]1CCN1)OCC2 [Compound I-83, (S)-2-((R)-8-fluoroisochroman-1-yl)azetidine]	77%
Fc1cccc2c1CCO[C@@H]2[C@H]1CCN1 [Compound I-96, (R)-2-((S)-5-fluoroisochroman-1-yl)azetidine]	81%

What follows are compounds tested against T1, 5-HT2B (Homo sapiens, UniProt P41595) (assay: In vitro radioligand binding assay, 5-HT2B, [125I](±)DOI). Conditions: human recombinant (CHO cells).
T1 construct: expressed in transfected cells; host or cells: CHO cells
T1 sequence (P41595 whole entry): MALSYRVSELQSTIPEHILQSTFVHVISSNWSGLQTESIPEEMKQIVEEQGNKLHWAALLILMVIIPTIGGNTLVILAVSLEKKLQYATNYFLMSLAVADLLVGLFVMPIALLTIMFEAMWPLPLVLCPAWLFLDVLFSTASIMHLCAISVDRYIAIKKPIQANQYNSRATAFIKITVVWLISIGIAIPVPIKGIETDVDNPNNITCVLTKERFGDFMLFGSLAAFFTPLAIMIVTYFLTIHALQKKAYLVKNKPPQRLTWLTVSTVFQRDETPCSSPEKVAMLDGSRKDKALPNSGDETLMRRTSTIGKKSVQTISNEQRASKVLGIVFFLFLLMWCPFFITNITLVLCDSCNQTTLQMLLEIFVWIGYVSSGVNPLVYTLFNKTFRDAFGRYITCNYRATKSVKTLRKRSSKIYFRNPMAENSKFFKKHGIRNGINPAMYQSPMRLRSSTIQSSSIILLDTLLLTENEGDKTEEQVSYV
Set-up: concentration or dose not given beside the values
Experimental: as §1

SMILES	5HT2b percent inhibition of specific binding
Clc1ccc2c(c1)[C@H]([C@@H]1CCCN1)OCC2 [Compound I-29, (S)-2-((R)-7-chloroisochroman-1-yl)pyrrolidine]	80%
Fc1cccc2c1CCO[C@@H]2[C@@H]1CCN1 [Compound I-94, (S)-2-((S)-5-fluoroisochroman-1-yl)azetidine]	76%
Fc1ccc2c(c1)CCO[C@H]2[C@@H]1CCN1 [Compound I-90, (S)-2-((R)-6-fluoroisochroman-1-yl)azetidine]	77%
Fc1ccc2c(c1)[C@H]([C@@H]1CCCN1)OCC2 [Compound I-5, (2S)-2-((R)-7-fluoroisochroman-1-yl)pyrrolidine]	72%
Fc1cccc2c1[C@H]([C@@H]1CCCN1)OCC2 [Compound I-1, (S)-2-((R)-8-fluoroisochroman-1-yl)pyrrolidine]	79%
Fc1ccc2c(c1)CCO[C@H]2[C@@H]1CCCN1 [Compound I-9, (S)-2-((R)-6-fluoroisochroman-1-yl)pyrrolidine]	76%
Fc1cccc2c1[C@H]([C@@H]1CCN1)OCC2 [Compound I-83, (S)-2-((R)-8-fluoroisochroman-1-yl)azetidine]	83%
Fc1cccc2c1CCO[C@@H]2[C@H]1CCN1 [Compound I-96, (R)-2-((S)-5-fluoroisochroman-1-yl)azetidine]	58%
